The values that follow come from publication PMC9145765, “Identification and Molecular Characterization of the Operon Required for L-Asparagine Utilization in Corynebacterium glutamicum” (Microorganisms, 2022).

The target in one data set is T1, AnsR (Corynebacterium glutamicum, UniProt A0AB72VEC9).
T1 construct: gene cgR_2807; His-tagged (pColdI, plasmid pCRC667), E. coli BL21(DE3), Ni-NTA; annotated start codon is wrong, true start is the ATG 12 nt downstream
T1 sequence (A0AB72VEC9 5-238 limits assumed): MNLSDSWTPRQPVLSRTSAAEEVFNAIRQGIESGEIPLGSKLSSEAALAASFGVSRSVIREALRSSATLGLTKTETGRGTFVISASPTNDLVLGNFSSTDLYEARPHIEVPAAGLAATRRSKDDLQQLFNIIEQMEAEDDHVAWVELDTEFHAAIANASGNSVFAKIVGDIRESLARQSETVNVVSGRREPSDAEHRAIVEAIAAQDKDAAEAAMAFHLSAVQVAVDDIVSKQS
In words: EMSA, release of promoter DNA from His-tagged AnsR. Conditions: effector abolishing operator DNA binding; […] L-Asn preincubated […] min; pH […]; room temperature. (In general: In EMSA bound probe runs differently from free probe, usually more slowly.)

In data set [1] the test system is T2, AnsR (Corynebacterium glutamicum R (JCM 18229)), ORF:3b2fc73c.
T2 sequence: T1 sequence (A0AB72VEC9 5-238 limits assumed)
Description: EMSA. The following applies: 20 mM Tris-HCl pH 8.0, 100 mM NaCl, 3 mM MgCl2, 5 mM CaCl2, 0.1 mM EDTA, 0.1 mM DTT, 10% glycerol, 0.15 mg/mL BSA, room temperature, 25 min; 5% PAGE in 0.5x ….

With `NC(=O)C[C@H](N)C(=O)O` [L-Asn], the “EMSA, release of promoter DNA from His-tagged AnsR” value on AnsR was “L-Asn inhibited the binding of AnsR to the site”.
As for “GTTCATGGTGAACATCATGCATTGTGATGCACCTTACGTCAAGGACTTCTTGTTAAGTGATTCTCTTTGTGCAGGTTATGGCAATAAAAAGAACCTGCCCCGAAAAGGGAACAGGCTCTTTTTTCGGTAAGGGTTAAGCCAATGAAGCAAGTCCGAACATTGCGTAAGCCATGATGAAACCAACGATGGCAATACAGGTCTGGTTCACGGTCCAG (double strand) [probe -209 to +6]”, in data set [1], the binding result is listed as “no binding”.
